According to patent US5104800A, “One-step cephalosporin C amidase enzyme” (Merck & Co., Inc., priority 1989, dated 1992):

Experiments:
[1] = system: cephalosporin C amidase from Bacillus megaterium (alpha(2) beta(2) oligomer, 722 amino acid primary translation product); assay: Inhibitors of purified cephalosporin C amidase; format: biochemical; conditions: for inhibition at 10 mM (potent inhibitors): inhibitor at 10 mM; for inhibition of the enzyme (in words): concentration not given
Source text: (§1) The amino acid sequence of the cephalosporin C amidase enzyme of the present invention, recited further above, was deduced by DNA sequence analysis of the gene coding for the enzyme, and the accuracy of the results have been verified by sequencing three independent isolates from three different strains of Bacillus megaterium. However, since 100% accuracy cannot be totally assured, it has been considered desirable to also identify the cephalosporin C amidase enzyme of the present invention in terms of a number of physical and chemical attributes which it uniquely has. Purification of the enzyme for which such data has been derived is explained in more detail further below. Those data are set out in the following table:
(§2) Assay of activity: incubate 180 μl enzyme with 20 μl 20 mg/ml cephalosporin C; after 3 hours at 37° determine 7-ACA by HPLC assay
(§3) Cultures of B. megaterium were grown as described. The cells were removed from the broth by centrifugation. The broth was brought to 55% saturation with respect to ammonium sulfate and the precipitate removed by centrifugation. The supernatant was then brought to 75% saturated with respect to ammonium sulfate and the cephalosporin C amidase containing precipitate pelleted by centrifugation. This pellet was resuspended in 1/10 of the original culture volume of 15% (w/v) ammonium sulfate, 50 mM sodium phosphate, 5% (w/v) glycerol pH 7.5.
The 10× concentrated enzyme was brought from 15% to 18% w/v ammonium sulfate by addition of saturated ammonium sulfate and filtered through a 0.4 micron filter. Four mls of this was injected onto a Synchrome Synchropak propyl column (25 cm×[…]) which was previously equilibrated with 18% (w/v) ammonium sulfate, 50 mM potassium phosphate pH 7.0. The flow rate was 1 ml/min. For ten minutes after injection the mobile phase composition remained unchanged. From 10 to 40 minutes the mobile phase was changed in a linear gradient to 0% ammonium sulfate, 50 mM sodium phosphate pH 7. From 40-50 minutes the mobile phase composition remained unchanged. Two fractions/min. were collected and assayed for cephalosporin C amidase activity. The activity eluted from 22 to 25 minutes.
The five fractions with the most activity were pooled and concentrated by ultrafiltration in a Centricon 30 (Amicon) to about 50 μl. This concentrated enzyme was injected onto a Zorbox GF 250 (DuPont) column ([…]). The column had been equilibrated and was run in 10% (w/v) ammonium sulfate, 50 mM potassium phosphate pH 7.0 at 1 ml/min. Five fractions/min. were collected. All of the cephalosporin C amidase activity was recovered in two fractions at approximately 9 minutes after injection.
1. The substrate stock solution was prepared by dissolving 20 mg of cephalosporin C in 1 ml of water.
2. Cephalosporin C stock solution (20 μl) was added to the recovered enzyme (180 μl) and the mixture was incubated at 37° C. for 3 hours. Formation of 7-ACA was monitored by HPLC.

[2] = system: cephalosporin C amidase from Bacillus megaterium (alpha(2) beta(2) oligomer, 722 amino acid primary translation product); assay: Kinetic characterisation of purified cephalosporin C amidase (Km, turnover); format: biochemical
Source text: as §1, §2
as §3, with “This pellet was resuspended in 1/10 of the original culture volume of 15% (w/v) ammonium sulfate, 50 mM sodium phosphate, 5% (w/v) glycerol pH 7.5.” left out
2. […] Formation of 7-ACA was monitored by HPLC.

Structure (SMILES)	inhibition at 10 mM (potent inhibitors) [1]	also measured
C[C@H](N)C(=O)O [L-alanine]	> 90%	
NCC(=O)O [Glycine]	> 90%	
NC(=O)CC[C@H](N)C(=O)O [Glutamine]	> 90%	
CC(=O)OCC1=C(C(=O)O)N2C(=O)[C@@H](NC(=O)CCC[C@@H](N)C(=O)O)[C@H]2SC1 [cephalosporin C]		Km ([2]; substrate cephalosporin C): 1.3 mM
C[C@@H](N)C(=O)O [D-alanine]	> 90%	
CC1(C)S[C@@H]2[C@H](N)C(=O)N2[C@H]1C(=O)O [6-APA]		inhibition of the enzyme (in words) [1]: NOT inhibited
O=C(O)CCCC(=O)Nc1ccc(C(=O)O)cc1 [glutaryl-4-aminobenzoate, reference compound]		turnover number, fold higher than with cephalosporin C ([2]; substrate glutaryl-4-aminobenzoate (GAB) compared with cephalosporin C): 20 fold
CC1(C)S[C@@H]2[C@H](NC(=O)Cc3ccccc3)C(=O)N2[C@H]1C(=O)O [PenG, penicillin G, reference compound]		inhibition of the enzyme (in words) [1]: NOT inhibited
